From patent US20080090849A1, “NOVEL PURINE DERIVATIVES, PREPARATION METHOD AND USE AS MEDICINES” (AVENTIS PHARMA S.A., priority 2000, published 2008)
Values after ≈ are worked out from the molar mass of the structure shown. Structures can show the parent of a compound that is named as a salt. Where two headings read alike, the source gives them in different places.

Key:
[1] = target: CaCiv1 (Candida albicans, UniProt A0A1D8PH53); assay: Test of inhibition of the activity of CIV-CDK (CIV1); assay type: biochemical
Chain of CaCiv1 (A0A1D8PH53 entry or part of it): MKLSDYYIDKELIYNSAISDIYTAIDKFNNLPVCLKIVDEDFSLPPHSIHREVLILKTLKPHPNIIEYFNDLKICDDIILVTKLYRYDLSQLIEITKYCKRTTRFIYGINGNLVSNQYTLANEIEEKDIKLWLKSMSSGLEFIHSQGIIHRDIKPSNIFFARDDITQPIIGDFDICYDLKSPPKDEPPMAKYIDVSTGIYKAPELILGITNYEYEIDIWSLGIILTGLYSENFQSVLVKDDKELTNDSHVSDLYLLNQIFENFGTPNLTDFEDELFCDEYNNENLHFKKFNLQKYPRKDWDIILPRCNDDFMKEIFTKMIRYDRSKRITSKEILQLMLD
Method: (Details of the Excipient: Lactose, Talc, Starch, Magnesium Stearate.) Pharmacological Part: 1) Test of Inhibition of the Activity of CIV-CDK (CIV1) a) PREPARATION of the Reagents […]
967 μl Buffer [50 mM Tris-HCl−0.1 M NaCl−pH 7.5]
−0.1% BSA+30 μl Cdk2 (1 mg/ml)
(2)-3× Inhibitor Cocktail
Prepare a 3× range of inhibitor in 3% of DMSO-Buffer
[50 mM Tris-HCl−0.1 M NaCl−pH 7.5]−0.1% BSA
ATP−pH 7.5+1 tablet of protease inhibitors (Complete EDTA Free™) per 5 ml of Buffer b) Carrying Out of the Test
1)—mix 30 μl of the 3× enzyme cocktail (1) with 30 μl of the 3× inhibitor cocktail (2) 2)—add 30 μl of the 3×ATP cocktail (3) (start of the reaction)
3)—incubate for 30 min at room temperature (20 to 25° C.)
4)—stop the reaction by adding 250 μl of Buffer [50 mM Tris-HCl−0.1 M NaCl−pH 7.5]−0.1% BSA−25 mM EDTA 5)—distribute 100 μl into a plate coated with antibodies directed against the reaction substrate 6)—incubate for 60 min at room temperature, stirring gently and then wash 3 times with 300 μl Buffer [50 mM Tris-HCl−0.1 M NaCl−pH 7.5]−0.05% Tween20
9)—Place the plate to dry for 30 min at 37° C.
10)—Place for counting in a scintillation counter c) Results Obtained, Expressed as IC50 Expressed in Micromolar

[2] = test system: fungus; assay: Minimum inhibitory concentration (MIC), NCCLS M27-A broth dilution antifungal susceptibility test; assay type: cell-based; conditions: RPMI 1640 medium, 37° C., visual reading, inhibition of at least 80% of growth; test strain not named
Source text: A constant number of cells of a given strain are exposed to increasing concentrations of an antifungal, under conditions taken from NCCLS (National Committee for Clinical Laboratory Standards, 1997 [reference method for broth dilution antifungal susceptibility testing of yeasts]. Approved Standard M27-A. NCCLS, Villanova, Pa.); the minimum concentration with which a visible reduction in the cloudiness from cell growth was observed (at least 80% relative to a control with no product) is the minimum inhibitory concentration (MIC) of the antifungal for the test strain.
Supplement the L-glutamine-free RPMI 1640 medium (liquid) with L-glutamine (0.3 g/l or 10.5 ml of a solution at 200 mM) and buffer with 34.54 g/l (0.165 M) of M morpholinepropanesulfonic acid (MOPS). Sterilize the medium by filtration. Distribute 100 μl of RPMI medium into each well of a 96-well microplate. Distribute the appropriate volume of the antifungal solution in the first column of the microplate and adjust with medium to 200 μl. Carry out a 2-fold serial dilution in order to establish a range of 11 concentrations in each lane of the microplate. The 12th well of each row will serve as a control for growth. Prepare the cellular suspension from a (liquid or agar) culture or from a frozen vial, dilute it in RPMI medium in order to obtain a cellular suspension at 5×10^3-2×10^4 cells/ml. Distribute 100 μl of the cellular suspension into the microplate. The MIC for all the Candida species was read after 24-48 h, for Cryptococcus and Aspergillus after 48-72 h of incubation at 37° C. in a normal atmosphere. The MIC is read by visual readings by determining the well which contains the lowest dose of antifungal which causes an inhibition of at least 80% of the growth of the fungus.

[3] = CaCiv1 with Cdk2, [33P]ATP, 30 min at room temperature, scintillation counting, read-out: IC50

Row | SMILES | IC50 [1, 3] [nM] | IC50 [1] [nM] | MIC [2] [µg/mL]
1 | CCOC(=O)c1cccc(Nc2nc(N[C@H]3CC[C@H](N)CC3)nc3[nH]cnc23)c1 [Example 14, Ethyl trans-3-[[2-[(4-aminocyclohexyl)amino]-9H-purin-6-yl]amino]benzoate] | 2000 | – | –
2 | CCOC(=O)c1ccc(Nc2[nH]c(N[C@H]3CC[C@H](N)CC3)nc3ncnc2-3)cc1 [Example 1, Ethyl trans-4-[[2-[(4-aminocyclohexyl)amino]-1H-purin-6-yl]amino]benzoate dihydrochloride] | – | 500 | –
3 | CCCCOC(=O)c1ccc(Nc2nc(N[C@H]3CC[C@H](N)CC3)nc3[nH]cnc23)cc1 [Example 17, Butyl trans-4-[[2-[(4-aminocyclohexyl)amino]-9H-purin-6-yl]amino]benzoate] | 5600 | – | 12.5 (≈ 29.5 µM)
4 | N[C@H]1CC[C@H](Nc2nc(Nc3ccc(C(=O)Nc4ccccc4)cc3)c3nc[nH]c3n2)CC1 [Example 19, Trans-4-[[2-[(4-aminocyclohexyl)amino]-9H-purin-6-yl]amino]-N-phenylbenzamide] | 3800 | – | –
5 | CCN(CC)CCOC(=O)c1ccc(Nc2nc(N[C@H]3CC[C@H](N)CC3)nc3[nH]cnc23)cc1 [Example 18, 2-(diethylamino)ethyl trans-4-[[2-[(4-aminocyclohexyl)amino]-9H-purin-6-yl]amino]benzoate] | 4300 | – | –
6 | N[C@H]1CC[C@H](Nc2nc(Nc3ccc(Cl)cc3)c3nc[nH]c3n2)CC1 [Example 15, Trans-N2-(4-aminocyclohexyl)-N6-(4-chlorophenyl)-9H-purine-2,6-diamine] | – | – | 100 (≈ 279 µM)
7 | N[C@H]1CC[C@H](Nc2nc(Nc3ccc(Cl)c(Cl)c3)c3nc[nH]c3n2)CC1 [Example 16, trans-N2-(4-aminocyclohexyl)-N6-(3,4-dichlorophenyl)-9H-purine-2,6-diamine] | 2900 | – | 25 (≈ 63.7 µM)
8 | N[C@H]1CC[C@H](Nc2nc(Nc3ccccc3)c3nc[nH]c3n2)CC1 [Example 11, Trans-N2-(4-aminocyclohexyl)-N6-[4-phenyl]-1H-purine-2,6-diamine dihydrochloride] | 2500 | – | –
